The source of these data is patent US6521632B2, “Method for the treatment or prevention of a disease mediated by the alpha-2B-adrenoceptor” (Oy Juvantia Pharma LTD, priority 2000, dated 2003).

Where only a bound is given, the exact number is not on record here.

The target in experiment [1] is T1, human α2B-adrenoceptor (Homo sapiens, UniProt P18089).
T1 sequence (P18089 1-450): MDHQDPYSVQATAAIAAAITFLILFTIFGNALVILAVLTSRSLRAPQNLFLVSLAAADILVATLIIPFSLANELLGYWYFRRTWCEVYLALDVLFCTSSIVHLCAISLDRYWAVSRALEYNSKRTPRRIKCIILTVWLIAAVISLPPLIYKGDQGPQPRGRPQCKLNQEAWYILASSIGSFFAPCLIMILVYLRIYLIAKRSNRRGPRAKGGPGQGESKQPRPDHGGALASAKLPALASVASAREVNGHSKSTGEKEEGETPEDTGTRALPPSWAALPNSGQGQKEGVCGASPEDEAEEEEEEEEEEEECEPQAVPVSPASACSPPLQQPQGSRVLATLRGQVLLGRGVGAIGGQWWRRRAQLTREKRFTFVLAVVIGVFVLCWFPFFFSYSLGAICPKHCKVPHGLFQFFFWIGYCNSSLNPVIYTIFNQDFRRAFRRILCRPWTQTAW
The experiment in a line: Competition binding with 3H-rauwolscine, human alpha-2B. The settings on record: Mean ± SEM, n = 3 unless indicated, membranes of Shionogi S115 cells, read-out: Binding affinity Ki alpha-2B. More on the design: expressed in transfected cells; host or cells: Shionogi S115 cells (membranes). As for the experimental part:
(§1) Binding Affinity Human Alpha-2-adrenoceptor
(§2) The affinity of test compounds for the three human α2-adrenoceptor subtypes (α2A, α2B and α2C) was determined in competition binding assays with ^3H-rauwolscine. The biological material for these experiments consisted of membranes from Shionogi S115 cells stably transfected with either of the three human α2 subtypes (Marjarnaki et al. 1992). Membrane (5-10 μg of total protein per sample) and 1 nM-2 nM ^3H-rauwolscine (specific activity 78 Ci/mrnmol) were incubated in 50 mM KH2PO4, pH 7.5 with 6 concentrations of the compounds. Each concentration was run in duplicate. Nonspecific binding was defined by 100 μM oxymetazoline and corresponded to 5-15% of total binding. After 30 mim at room temperature, incubations were terminated by rapid vacuum filtration through GF/B glass fiber filter and three 5 ml washes with icecold incubation buffer. The filters were then dried, impregnated with scintillate and their radioactivity was measured by scintillation counting. The analysis of the experiments was carried out by nonlineair least square curve fitting. Experimentally determined IC50 values were converted to Ki's by making use of the Cheng-Prusoff equation (Cheng and Prusoff, 1973). Experiments were repeated a minimum of three times.

Experiment [2] concerns the target T2, human α2C-adrenoceptor (Homo sapiens, UniProt P18825).
T2 sequence (P18825 1-462): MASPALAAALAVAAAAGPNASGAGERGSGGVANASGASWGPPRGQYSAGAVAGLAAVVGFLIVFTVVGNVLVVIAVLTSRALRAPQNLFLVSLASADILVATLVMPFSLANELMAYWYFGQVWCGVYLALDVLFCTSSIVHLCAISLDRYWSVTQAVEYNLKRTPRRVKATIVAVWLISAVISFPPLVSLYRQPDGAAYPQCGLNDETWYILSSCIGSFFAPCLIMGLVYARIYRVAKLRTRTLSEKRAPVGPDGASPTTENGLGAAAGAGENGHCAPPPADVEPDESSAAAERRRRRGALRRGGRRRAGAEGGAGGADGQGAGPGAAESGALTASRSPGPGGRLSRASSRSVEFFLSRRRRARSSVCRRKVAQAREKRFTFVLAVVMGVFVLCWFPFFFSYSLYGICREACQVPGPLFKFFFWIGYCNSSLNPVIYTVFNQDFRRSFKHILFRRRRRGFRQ
The experiment in a line: Inhibition of epinephrine-stimulated 35S-GTPγS binding, human alpha-2C. The class given is biochemical. The settings on record: Mean ± SEM, n minimum three; CHO cell membranes; epinephrine 5 μM; incomplete dose-response curves, KB numbers are minimum estimates; read-out: Antagonist effect KB alpha-2C. As for the experimental part: (§3) Antagonist Activity on Human a2-adrenoceptor Subtypes
(§4) Membranes (2-6 μg of protein per samnple) and 12 concentrations of test compound were preincubated for 30 min with a fixed concentration fo epinephrine (5 μM for α2A, 15 μM for α2B, 5 μM for α2C) in 50 mM Tris, 5 mM MgCl2, 150 mM NaCl, 1 mM DTT,
(§5) 1 mM EDTA, 10 μuM GDP, 30 μM ascoerbic acid, pH 7.4 at room temperature. Binding of radiolabel was started by the addition of trace amounts of ^35S-GTPγS (0.08 nM-0.15 nM, specific activity 1250 Ci/mmol) to the incubation mixture. After an additional 60 min at room temperature, the incubation was terminated by rapid vacuum filtration through glass fiber filter. Filters were washed three times with 5 ml icecold wash buffer (20 mM Tris, 5 mM MgCl2, 1 mM EDTA pH 7.4 at room temperature), dried and counted for radioactivity in a scintiallation counter. Analysis of experiments was carried out by nonlinear least square fitting. Experiments were repeated at least three times.

Experiment [3] deals with T2, human α2C-adrenoceptor. As to the kind of experiment: Competition binding with 3H-rauwolscine, human alpha-2C. Conditions: Mean ± SEM, n = 3 unless indicated, membranes of Shionogi S115 cells, read-out: Binding affinity Ki alpha-2C. On the set-up: expressed in transfected cells; host or cells: Shionogi S115 cells (membranes). As for the experimental part: as §1, §2
Experiment [4] deals with T3, human α2A-adrenoceptor (Homo sapiens, UniProt P08913).
T3 sequence (P08913 1-465): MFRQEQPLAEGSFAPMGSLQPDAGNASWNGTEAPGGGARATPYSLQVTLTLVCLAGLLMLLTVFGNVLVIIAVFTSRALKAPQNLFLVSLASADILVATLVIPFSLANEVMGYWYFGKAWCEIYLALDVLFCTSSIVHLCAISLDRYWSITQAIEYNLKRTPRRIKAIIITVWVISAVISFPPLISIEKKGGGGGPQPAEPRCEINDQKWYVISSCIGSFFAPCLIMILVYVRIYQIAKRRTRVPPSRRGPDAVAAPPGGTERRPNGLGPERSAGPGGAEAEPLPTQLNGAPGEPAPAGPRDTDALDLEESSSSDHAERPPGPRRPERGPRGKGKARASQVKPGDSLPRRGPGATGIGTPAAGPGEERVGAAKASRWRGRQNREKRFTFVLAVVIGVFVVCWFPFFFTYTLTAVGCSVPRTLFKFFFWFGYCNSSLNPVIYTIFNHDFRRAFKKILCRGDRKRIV
As to the kind of experiment: Competition binding with 3H-rauwolscine, human alpha-2A. On the set-up: expressed in transfected cells; host or cells: Shionogi S115 cells (membranes). Conditions: Mean ± SEM, n = 3 unless indicated, membranes of Shionogi S115 cells, read-out: Binding affinity Ki alpha-2A. Here is the method: as §1, §2

In experiment [5] the target is T1, human α2B-adrenoceptor. As to the kind of experiment: Inhibition of epinephrine-stimulated 35S-GTPγS binding, human alpha-2B. In kind it is biochemical. Conditions: Mean ± SEM, n minimum three; CHO cell membranes; epinephrine 15 μM; read-out: Antagonist effect KB alpha-2B. As for the experimental part: as §3, §4, §5
On the technique in general: GTPγS resists hydrolysis and so accumulates on activated G proteins.

In experiment [6] the target is T3, human α2A-adrenoceptor. As to the kind of experiment: Inhibition of epinephrine-stimulated 35S-GTPγS binding, human alpha-2A. In kind it is biochemical. The settings on record: Mean ± SEM, n minimum three; CHO cell membranes; epinephrine 5 μM; incomplete dose-response curves, KB numbers are minimum estimates; read-out: Antagonist effect KB alpha-2A. As for the experimental part: as §3, §4, §5

The target of experiment [7] is rat neocortical α1-adrenoceptors. As to the kind of experiment: Competition binding with 3H-prazosin, rat neocortex membranes. Conditions: concentrations of up to 30 μM. Here is the method: Binding Affinity Rat Cortical α1-adrenoceptor
The affinity for rat neocortical α1-adrenoceptors was determined in competition binding assays with ^3H-prazosin. The biological material for these assays consisted of membranes from rat neocortex. Membrane suspensions (100-200 μg of total protein per sample) and 0.2 nM-0.25 nM of ^3H-prazosin (specific activity 74 Ci/mmol) were incubated with 6 concentrations of compounds in a total volume of 0.25 ml (50 mM Tris pH 7.7 at 25° C). Each concentration was run in duplicate. Nonspecific binding was defined by 10 μM phentolamine methanesulfonate and corresponded to 25-30% of total binding. After 30 min at room temperature, incubations was terminated by rapid filtration through GF/B glass-fiber filter mats and three washes with ice-cold 10 mM Tris (pH 7.7 at 4° C.). After drying, a solid scintillate was melted onto the filter mats, and their radioactivity was measured by scintillation counting.

Regarding `Cc1cc(C)nc(NS(=O)(=O)c2ccc(NCc3nc4ccccc4n3C)cc2)n1` [B], the Ki (commonly a dissociation constant, usually derived from enzyme kinetics or from competition with a known ligand) is 215 ± 60 nM in experiment [1], above 30 µM in experiment [3] and above 30 µM in experiment [4]. The antagonist equilibrium constant (Kb) (as a rule, the affinity of an antagonist, worked out from how it opposes an agonist) in experiment [2] was above 10000 nM; in experiment [5] it was 250 ± 80 nM; in experiment [6], above 10000 nM.

`CCOc1ccc(C(=O)Nc2ccc(S(=O)(=O)Nc3nc(C)cc(C)n3)cc2)cc1` [C]: the values for the Ki in experiment [1], in experiment [3] and in experiment [4] were 1860 nM, above 30 µM and above 30 µM, respectively.

`Cc1cc(C)nc(NS(=O)(=O)c2ccc(NC(=O)COc3ccccc3)cc2)n1` [E]: the results for the Ki in experiment [1], in experiment [3] and in experiment [4] were 2900 ± 300 nM, above 100 µM and above 100 µM, respectively.

Turning to `CCn1c(CNc2ccc(S(=O)(=O)Nc3nc(C)cc(C)n3)cc2)nc2ccccc21` [A], the inhibition constant (Ki) in experiment [1] was 30 ± 4 nM; in experiment [7] (read-out: Ki, displacement of 3H-prazosin), above 30 µM; in experiment [3] it was above 4.7 µM; in experiment [4] it was 4.1 ± 0.2 µM. In addition, the figures for the antagonist equilibrium constant (Kb) in experiment [2], in experiment [5] and in experiment [6] were 2400 ± 900 nM, 73 ± 23 nM and 2400 ± 700 nM, respectively. The half-inhibitory concentration (IC50) (usually the concentration that gives 50% inhibition) in experiment [7] (read-out: IC50, displacement of 3H-prazosin) was above 30 µM.

On to `Cc1cc(C)nc(NS(=O)(=O)c2ccc(NC(=O)/C=C/c3ccc(F)cc3)cc2)n1` [D], for which the Ki was 530 ± 90 nM in experiment [1], above 30 µM in experiment [3] and above 30 µM in experiment [4].
